Earlier results, collected in US5411479A, “Cancer treatment and catheter for use in treatment” (priority 1993, dated 1995).

Columns and labels:
hepatocellular tumor = conditions: for activity in hepatocellular tumor: systemic chemotherapy, Phase II trials
[1] = system: colon cancer metastatic to the liver; conditions: for effectiveness of arterial infusion: drug delivered directly to liver tumor cells
[2] = for Local hepatobiliary toxicities (hepatitis, cholecystitis, biliary sclerosis, stenosis and stricture): conventional HAI; for Systemic toxicity of HAI chemotherapy: conventional doses; for Hepatitis (nausea, vomiting, abdominal pain, jaundice, elevated liver transaminases and bilirubin): in vivo

Structure (SMILES)	activity in hepatocellular tumor (hepatocellular tumor)	effectiveness of arterial infusion [1]	dose-response effect ([1]; in vivo)	Local hepatobiliary toxicities (hepatitis, cholecystitis, biliary sclerosis, stenosis and stricture) [2]	Systemic toxicity of HAI chemotherapy [2]	Hepatitis (nausea, vomiting, abdominal pain, jaundice, elevated liver transaminases and bilirubin) [2]	objective therapeutic responses (hepatocellular tumor; doxorubicin 60 mg/m^2 every 3 weeks)	toxicity (hepatocellular tumor; doxorubicin 75 mg/m^2 every 3 weeks)	objective response (hepatocellular tumor; doxorubicin 75 mg/m^2 every 3 weeks, East African blacks, of 50 patients treated)	complete response (hepatocellular tumor; doxorubicin 75 mg/m^2 every 3 weeks, among 22 objective responses, 50 patients treated)
O=c1[nH]cc(F)c(=O)[nH]1 [5-FU, 5-fluorouracil]	significant activity	increases their effectiveness	displays a dose-response effect	up to 50 % of the patients	has not been a major problem	has occurred				
O=c1[nH]c(=O)n([C@H]2C[C@H](O)[C@@H](CO)O2)cc1F [FUDR, floxuridine]		increases their effectiveness		up to 50 % of the patients	has not been a major problem	has occurred				
COc1cccc2c1C(=O)c1c(O)c3c(c(O)c1C2=O)C[C@@](O)(C(=O)CO)C[C@@H]3O[C@H]1C[C@H](N)[C@H](O)[C@H](C)O1 [doxorubicin]	significant activity						approximately 20 % of the patients	Substantial toxicity	22 patients	3 patients
